Experimental findings from ChEMBL document CHEMBL1255551, “Synthesis and biological evaluation of C-2 halogenated analogs of salvinorin A” (Bioorg Med Chem Lett, 2010) are described below.

Calls of active or inactive are those of the source. No cut-off for these calls is given here.

Assay [1] concerns the target T1, Kappa-type opioid receptor (Homo sapiens, UniProt P41145). Briefly: Displacement of [3H]diprenorphine from human kappa opioid receptor expressed in CHO cells. Format: cell-based. A general note: Loss of bound radioactivity is the signal in a displacement assay; it reports binding, not function.
Assay [2] has as its target T1, Kappa-type opioid receptor. Put plainly: Displacement of [3H]diprenorphine from human kappa opioid receptor expressed in CHO cells at 3 uM. Format: cell-based.
Assay [3] addresses Mu-type opioid receptor (Rattus norvegicus) (UniProt P33535). Briefly: Displacement of [3H]diprenorphine from rat mu opioid receptor expressed in CHO cells at 3 uM. The format is cell-based.
Assay [4] has as its target Delta-type opioid receptor (Mus musculus) (UniProt P32300). Briefly: Displacement of [3H]diprenorphine from mouse FLAG-tagged delta opioid receptor expressed in CHO cells at 3 uM. The format is cell-based.
The target in assay [5] is T1, Kappa-type opioid receptor. Briefly: Agonist activity at human kappa opioid receptor expressed in CHO cells assessed as increase of [35S]GTPgammaS binding at 240 nM relative to U50488H. Format: functional, cell-based. For orientation: Binding of GTPγS marks nucleotide exchange on a G protein.
In assay [6] the target is T1, Kappa-type opioid receptor. Put plainly: Agonist activity at human kappa opioid receptor expressed in CHO cells assessed as increase of [35S]GTPgammaS binding. Format: functional, cell-based.

T1 sequence (P41145 whole entry): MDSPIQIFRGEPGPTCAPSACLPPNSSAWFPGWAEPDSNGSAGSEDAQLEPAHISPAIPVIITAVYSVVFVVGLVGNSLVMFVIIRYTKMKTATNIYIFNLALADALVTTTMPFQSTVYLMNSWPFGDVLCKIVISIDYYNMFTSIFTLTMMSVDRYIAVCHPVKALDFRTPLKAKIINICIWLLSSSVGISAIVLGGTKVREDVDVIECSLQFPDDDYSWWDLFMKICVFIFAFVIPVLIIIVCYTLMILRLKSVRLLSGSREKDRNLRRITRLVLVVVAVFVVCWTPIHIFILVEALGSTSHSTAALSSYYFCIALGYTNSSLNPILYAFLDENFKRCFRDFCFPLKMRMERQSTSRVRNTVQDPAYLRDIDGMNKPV
Sequence of Delta-type opioid receptor (Mus musculus) (P32300 whole entry): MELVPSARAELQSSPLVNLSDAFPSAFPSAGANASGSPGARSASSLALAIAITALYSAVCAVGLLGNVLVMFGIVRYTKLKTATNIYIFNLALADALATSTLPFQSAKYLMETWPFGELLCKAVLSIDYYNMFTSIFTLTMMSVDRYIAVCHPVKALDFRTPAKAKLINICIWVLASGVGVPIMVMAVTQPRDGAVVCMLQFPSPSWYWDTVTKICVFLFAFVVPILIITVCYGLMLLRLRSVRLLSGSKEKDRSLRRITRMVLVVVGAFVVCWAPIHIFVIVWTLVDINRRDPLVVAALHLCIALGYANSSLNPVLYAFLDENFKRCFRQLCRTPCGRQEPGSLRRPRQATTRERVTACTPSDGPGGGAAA
Sequence of Mu-type opioid receptor (Rattus norvegicus) (P33535 whole entry): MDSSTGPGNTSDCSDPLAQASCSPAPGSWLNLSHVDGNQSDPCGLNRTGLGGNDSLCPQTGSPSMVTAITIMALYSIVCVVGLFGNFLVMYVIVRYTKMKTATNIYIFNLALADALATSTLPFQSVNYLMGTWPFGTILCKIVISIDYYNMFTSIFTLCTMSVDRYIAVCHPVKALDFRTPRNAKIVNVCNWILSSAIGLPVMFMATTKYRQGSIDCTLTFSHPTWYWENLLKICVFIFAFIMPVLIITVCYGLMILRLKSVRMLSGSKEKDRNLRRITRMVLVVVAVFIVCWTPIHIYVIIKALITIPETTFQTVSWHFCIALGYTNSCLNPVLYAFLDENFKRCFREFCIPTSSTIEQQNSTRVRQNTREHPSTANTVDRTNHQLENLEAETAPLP

The molecule `COC(=O)[C@@H]1C[C@H](Cl)C(=O)[C@H]2[C@@]1(C)CC[C@H]1C(=O)O[C@H](c3ccoc3)C[C@]21C` returned a Ki in assay [1] above 1000 nM. In addition, the inhibition in assay [2] is above 50%. Further, the result in assay [3] and in assay [4] was inactive.
Consider `COC(=O)[C@@H]1CCC(=O)[C@H]2[C@@]1(C)CC[C@H]1C(=O)O[C@H](c3ccoc3)C[C@]21C`, for which, in assay [5], the Emax worked out at 124%. Moreover, the EC50 in assay [6] amounted to 266 nM. The molecule also displayed a Ki in assay [1] of 51.6 nM. This molecule showed an inhibition in assay [2] above 50%. The result in assay [3] and in assay [4] was inactive.
For the molecule `COC(=O)[C@@H]1C[C@@H](Cl)C(=O)[C@H]2[C@@]1(C)CC[C@H]1C(=O)O[C@H](c3ccoc3)C[C@]21C`, the Emax in assay [5] came out at 112%. Also, the EC50 in assay [6] came to 673 nM. Also, the affinity in assay [1] corresponds to a Ki of 167 nM. In addition, the inhibition in assay [2] is above 50%. Besides, the result in assay [3] and in assay [4] was inactive.
Regarding `COC(=O)[C@@H]1C[C@H](Br)C(=O)[C@H]2[C@@]1(C)CC[C@H]1C(=O)O[C@H](c3ccoc3)C[C@]21C`, in assay [5], the Emax stood at 87%. For the same molecule, the EC50 in assay [6] amounted to 1970 nM. The same molecule showed a Ki in assay [1] of 422 nM. Further, in assay [2], the inhibition was above 50%. The result in assay [3] and in assay [4] was inactive.
In the case of `COC(=O)[C@@H]1C[C@@H](F)C(=O)[C@H]2[C@@]1(C)CC[C@H]1C(=O)O[C@H](c3ccoc3)C[C@]21C`, the Emax in assay [5] worked out at 77%. In addition, the EC50 in assay [6] is 539 nM. The molecule also gave a Ki in assay [1] of 197 nM. The molecule further showed an inhibition in assay [2] above 50%. For the same molecule, the result in assay [3] and in assay [4] was inactive.
On to `COC(=O)[C@@H]1C[C@@H](Br)C(=O)[C@H]2[C@@]1(C)CC[C@H]1C(=O)O[C@H](c3ccoc3)C[C@]21C`, for which, in assay [5], the Emax was determined as 90%. Further, in assay [6], the EC50 amounted to 282 nM. In assay [1], this molecule came in with a Ki of 42.3 nM. Besides, in assay [2], the inhibition is above 50%. For the same molecule, the result in assay [3] and in assay [4] was inactive.
Consider `COC(=O)[C@@H]1C[C@H](OC(C)=O)C(=O)[C@H]2[C@@]1(C)CC[C@H]1C(=O)O[C@H](c3ccoc3)C[C@]21C`, for which the inhibition in assay [2] is above 50%. Also, the outcome in assay [3] and in assay [4] was inactive.
The molecule `COC(=O)[C@@H]1C[C@H](F)C(=O)[C@H]2[C@@]1(C)CC[C@H]1C(=O)O[C@H](c3ccoc3)C[C@]21C` returned a Ki in assay [1] above 1000 nM. The molecule further showed an inhibition in assay [2] above 50%. Moreover, the outcome in assay [3] and in assay [4] was inactive.
With `COC(=O)[C@@H]1C[C@@H](I)C(=O)[C@H]2[C@@]1(C)CC[C@H]1C(=O)O[C@H](c3ccoc3)C[C@]21C`, the Emax in assay [5] amounted to 46%. The EC50 in assay [6] is 239 nM. The molecule further came in with a Ki in assay [1] of 245 nM. This molecule came in with an inhibition in assay [2] above 50%. In addition, the outcome in assay [3] and in assay [4] was inactive.
`COC(=O)[C@@H]1C[C@@H](Br)C2=C3[C@@](C)(C[C@H](c4ccoc4)O2)C(C(=O)O)CC[C@]31C` (stereo partly drawn) returned a Ki in assay [1] above 1000 nM. In assay [2], this molecule had an inhibition above 50%. In addition, the result in assay [3] and in assay [4] was inactive.
For `COC(=O)[C@@H]1CC(C(=O)O)C(=O)[C@H]2[C@@]1(C)CC[C@H]1C(=O)O[C@H](c3ccoc3)C[C@]21C` (stereo partly drawn), in assay [5], the Emax was 103%. The EC50 in assay [6] was 83.3 nM. The affinity in assay [1] corresponds to a Ki of 24.3 nM. Further, the inhibition in assay [2] is above 50%. Besides, the outcome in assay [3] and in assay [4] was inactive.
Turning to `COC(=O)[C@@H]1C[C@H](I)C(=O)[C@H]2[C@@]1(C)CC[C@H]1C(=O)O[C@H](c3ccoc3)C[C@]21C`, the Emax in assay [5] was 92%. In addition, the EC50 in assay [6] stood at 648 nM. Besides, the Ki in assay [1] amounted to 198 nM. For the same molecule, the inhibition in assay [2] was above 50%. Besides, the result in assay [3] and in assay [4] was inactive.

The Ki is the dissociation constant of the complex between target and ligand, obtained from inhibition or displacement. A higher Ki goes with a looser hold on the target. The term inhibition denotes the relative decrease from the control value, in per cent. Broadly, the Emax is the maximal effect, on the per cent scale that the assay sets. As usually defined, the EC50 is the midpoint of the concentration-response curve.
